In ChEMBL document CHEMBL3739359, “New substituted 9-propyladenine derivatives as A2Aadenosine receptor antagonists” (Medchemcomm, 2015):

What was measured:
Homo sapiens = species: Homo sapiens; test: Selectivity ratio of Ki for adenosine A1 receptor (unknown origin) to Ki for adenosine A2A receptor (unknown origin)
Adenosine receptor A1 [1] = target: T1, Adenosine receptor A1 (Homo sapiens, UniProt P30542); test: Displacement of [3H]CCPA from human adenosine A1 receptor expressed in CHO cells; format: cell-based
T1 sequence (P30542 whole entry): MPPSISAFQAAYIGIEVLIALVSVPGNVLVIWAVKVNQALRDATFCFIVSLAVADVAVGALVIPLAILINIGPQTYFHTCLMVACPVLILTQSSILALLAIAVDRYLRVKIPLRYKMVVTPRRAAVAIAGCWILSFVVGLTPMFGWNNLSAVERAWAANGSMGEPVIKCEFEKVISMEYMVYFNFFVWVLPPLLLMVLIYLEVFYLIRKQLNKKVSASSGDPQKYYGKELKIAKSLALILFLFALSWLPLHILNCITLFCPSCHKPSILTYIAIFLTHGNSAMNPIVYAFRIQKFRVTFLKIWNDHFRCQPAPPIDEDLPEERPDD

Adenosine receptor A2a [2] = target: T2, Adenosine receptor A2a (Homo sapiens, UniProt P29274); test: Displacement of [3H]NECA from human adenosine A2A receptor expressed in CHO cells; format: cell-based
T2 sequence (P29274 whole entry): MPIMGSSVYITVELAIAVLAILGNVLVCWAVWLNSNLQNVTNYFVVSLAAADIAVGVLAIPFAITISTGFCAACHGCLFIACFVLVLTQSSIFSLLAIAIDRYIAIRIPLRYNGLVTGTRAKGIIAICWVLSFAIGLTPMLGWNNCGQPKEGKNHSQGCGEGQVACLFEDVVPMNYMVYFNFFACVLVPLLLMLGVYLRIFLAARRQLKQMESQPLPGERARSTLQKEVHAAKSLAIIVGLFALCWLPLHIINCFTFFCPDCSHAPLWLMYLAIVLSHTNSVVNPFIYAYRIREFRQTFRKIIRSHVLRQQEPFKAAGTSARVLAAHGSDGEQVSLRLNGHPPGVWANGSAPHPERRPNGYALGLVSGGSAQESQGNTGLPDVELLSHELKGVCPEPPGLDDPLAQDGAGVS

Adenosine receptor A2b [3] = target: T3, Adenosine receptor A2b (Homo sapiens, UniProt P29275); test: Antagonist activity at human adenosine A2B receptor expressed in CHO cells assessed as inhibition of NECA-stimulated adenylyl cyclase activity; format: functional, cell-based
T3 sequence (P29275 whole entry): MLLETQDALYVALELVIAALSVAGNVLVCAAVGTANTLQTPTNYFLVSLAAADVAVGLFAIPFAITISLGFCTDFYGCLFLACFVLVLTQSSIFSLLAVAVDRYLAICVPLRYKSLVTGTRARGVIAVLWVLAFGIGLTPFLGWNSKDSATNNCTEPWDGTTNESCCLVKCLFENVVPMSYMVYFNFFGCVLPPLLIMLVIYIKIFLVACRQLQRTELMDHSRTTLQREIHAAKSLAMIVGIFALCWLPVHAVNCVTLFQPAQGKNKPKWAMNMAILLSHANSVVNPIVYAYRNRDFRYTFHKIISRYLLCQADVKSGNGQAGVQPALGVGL

Adenosine receptor A3 [4] = target: T4, Adenosine receptor A3 (Homo sapiens, UniProt P0DMS8); test: Displacement of [3H]HEMADO from human adenosine A3 receptor expressed in CHO cells; format: cell-based
T4 sequence (P0DMS8 whole entry, looked up): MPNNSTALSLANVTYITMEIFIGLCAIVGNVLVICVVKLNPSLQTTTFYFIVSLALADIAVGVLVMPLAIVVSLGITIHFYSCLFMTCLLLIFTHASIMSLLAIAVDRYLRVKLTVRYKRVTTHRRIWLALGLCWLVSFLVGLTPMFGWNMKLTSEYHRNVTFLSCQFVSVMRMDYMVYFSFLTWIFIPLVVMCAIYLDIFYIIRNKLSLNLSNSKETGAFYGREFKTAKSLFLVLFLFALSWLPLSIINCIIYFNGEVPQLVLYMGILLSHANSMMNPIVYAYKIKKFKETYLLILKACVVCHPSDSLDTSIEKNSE

Adenosine receptor A1 [5] = target: T1, Adenosine receptor A1; test: Binding affinity to adenosine A1 receptor (unknown origin)
Adenosine receptor A2a [6] = target: T2, Adenosine receptor A2a; test: Binding affinity to adenosine A2A receptor (unknown origin)
Adenosine receptor A2b [7] = target: T3, Adenosine receptor A2b; test: Binding affinity to adenosine A2B receptor (unknown origin)
Adenosine receptor A3 [8] = target: T4, Adenosine receptor A3; test: Binding affinity to adenosine A3 receptor (unknown origin)

CCn1c(-c2ccco2)nc2c(N)ncnc21 showed a Ratio Ki (Homo sapiens) of 6.

In the case of CCCn1c(Br)nc2c(N)nc(NCc3ccccc3)nc21, the Ki (Adenosine receptor A1 [1]) is reported as 0.358 µM, the Ki (Adenosine receptor A2a [2]) is reported as 0.036 µM and the Ki (Adenosine receptor A2b [3]) is reported as 1.74 µM. The Ki (Adenosine receptor A3 [4]) was 0.65 µM.

CCn1cnc2c(NCCc3ccccc3)ncnc21 showed a Ki (Adenosine receptor A1 [5]) of 8.73 µM, a Ki (Adenosine receptor A2a [6]) of 1.34 µM and a Ki (Adenosine receptor A2b [7]) of 8.13 µM. It also gave a Ki (Adenosine receptor A3 [8]) of 10.8 µM.

Work on CCn1cnc2c(N)nc(NCCc3ccccc3)nc21 yielded a Ki (Adenosine receptor A1 [5]) of 0.33 µM, a Ki (Adenosine receptor A2a [6]) of 0.15 µM and a Ki (Adenosine receptor A2b [7]) of 2.41 µM. It also gave a Ki (Adenosine receptor A3 [8]) of 3.2 µM.

CCCn1c(-c2ccco2)nc2c(NCCc3ccccc3)ncnc21 showed a Ki (Adenosine receptor A1 [1]) of 2.44 µM, a Ki (Adenosine receptor A2a [2]) of 0.547 µM and a Ki (Adenosine receptor A2b [3]) of 9.28 µM. The Ki (Adenosine receptor A3 [4]) was 0.811 µM.

CCCn1c(Br)nc2c(NCCCc3ccccc3)ncnc21 gave a Ki (Adenosine receptor A1 [1]) of 2.67 µM, a Ki (Adenosine receptor A2a [2]) of 1.02 µM and a Ki (Adenosine receptor A2b [3]) of 1.76 µM. The Ki (Adenosine receptor A3 [4]) was 12.2 µM.

Molecule CCCn1cnc2c(NCCc3ccccc3)ncnc21 has a Ki (Adenosine receptor A1 [1]) of 19.2 µM, a Ki (Adenosine receptor A2a [2]) of 12 µM and a Ki (Adenosine receptor A2b [3]) greater than 30 µM. The Ki (Adenosine receptor A3 [4]) was 16.9 µM.

Work on CCCn1cnc2c(N)nc(NCCCc3ccccc3)nc21 yielded a Ki (Adenosine receptor A1 [1]) of 3.64 µM, a Ki (Adenosine receptor A2a [2]) of 9.11 µM and a Ki (Adenosine receptor A2b [3]) greater than 30 µM. The Ki (Adenosine receptor A3 [4]) was 12.6 µM.

With CCCn1c(-c2ccco2)nc2c(NCc3ccccc3)ncnc21 the Ki (Adenosine receptor A1 [1]) was 0.546 µM, the Ki (Adenosine receptor A2a [2]) was 0.08 µM and the Ki (Adenosine receptor A2b [3]) was 1.76 µM. It also gave a Ki (Adenosine receptor A3 [4]) of 0.402 µM.

Molecule CCCn1cnc2c(NCCCc3ccccc3)ncnc21 has a Ki (Adenosine receptor A1 [1]) of 18.6 µM, a Ki (Adenosine receptor A2a [2]) of 13 µM and a Ki (Adenosine receptor A2b [3]) greater than 30 µM. It also gave a Ki (Adenosine receptor A3 [4]) of 30 µM.

CCCn1cnc2c(N)nc(NCc3ccccc3)nc21 was tested, and the Ki (Adenosine receptor A1 [1]) was 7.6 µM, the Ki (Adenosine receptor A2a [2]) was 1.4 µM and the Ki (Adenosine receptor A2b [3]) was greater than 30 µM. It also gave a Ki (Adenosine receptor A3 [4]) of 5.84 µM.

CCCn1c(Br)nc2c(N)nc(NCCc3ccccc3)nc21 was tested, and the Ki (Adenosine receptor A1 [1]) was 0.373 µM, the Ki (Adenosine receptor A2a [2]) was 0.027 µM and the Ki (Adenosine receptor A2b [3]) was 1.49 µM. For the same molecule, the Ki (Adenosine receptor A3 [4]) was 1.16 µM.

CCCn1c(-c2ccco2)nc2c(N)nc(NCc3ccccc3)nc21 gave a Ki (Adenosine receptor A1 [1]) of 0.138 µM, a Ki (Adenosine receptor A2a [2]) of 0.0066 µM and a Ki (Adenosine receptor A2b [3]) of 4.61 µM. It also gave a Ki (Adenosine receptor A3 [4]) of 0.029 µM.

For CCCn1c(-c2ccco2)nc2c(N)nc(NCCc3ccccc3)nc21, the Ki (Adenosine receptor A1 [1]) was 0.08 µM, the Ki (Adenosine receptor A2a [2]) was 0.014 µM and the Ki (Adenosine receptor A2b [3]) was 2.03 µM. The Ki (Adenosine receptor A3 [4]) was 0.056 µM.

In the case of CCCn1cnc2c(N)ncnc21, the Ki (Adenosine receptor A3 [4]) is reported as greater than 100 µM.

CCCn1c(-c2ccco2)nc2c(N)nc(NCCCc3ccccc3)nc21 gave a Ki (Adenosine receptor A1 [1]) of 0.23 µM, a Ki (Adenosine receptor A2a [2]) of 0.113 µM and a Ki (Adenosine receptor A2b [3]) of 8.24 µM. It also gave a Ki (Adenosine receptor A3 [4]) of 0.266 µM.

CCCn1cnc2c(NCc3ccccc3)ncnc21 gave a Ki (Adenosine receptor A1 [1]) of 42.8 µM, a Ki (Adenosine receptor A2a [2]) of 22.6 µM and a Ki (Adenosine receptor A2b [3]) greater than 30 µM. It also gave a Ki (Adenosine receptor A3 [4]) of 29.1 µM.

In the case of CCCn1c(Br)nc2c(N)ncnc21, the Ki (Adenosine receptor A3 [4]) is reported as greater than 100 µM.

Work on CCCn1c(Br)nc2c(N)nc(NCCCc3ccccc3)nc21 yielded a Ki (Adenosine receptor A1 [1]) of 0.583 µM, a Ki (Adenosine receptor A2a [2]) of 0.284 µM and a Ki (Adenosine receptor A2b [3]) of 6.3 µM. It also gave a Ki (Adenosine receptor A3 [4]) of 1.95 µM.

For CCCn1c(Br)nc2c(NCCc3ccccc3)ncnc21, the Ki (Adenosine receptor A1 [1]) was 1.94 µM, the Ki (Adenosine receptor A2a [2]) was 0.503 µM and the Ki (Adenosine receptor A2b [3]) was 3.19 µM. It also gave a Ki (Adenosine receptor A3 [4]) of 2.52 µM.

CCCn1c(Br)nc2c(NCc3ccccc3)ncnc21 was tested, and the Ki (Adenosine receptor A1 [1]) was 5.62 µM, the Ki (Adenosine receptor A2a [2]) was 1.18 µM and the Ki (Adenosine receptor A2b [3]) was 7.49 µM. The Ki (Adenosine receptor A3 [4]) was 11.1 µM.

In the case of CCCn1c(-c2ccco2)nc2c(NCCCc3ccccc3)ncnc21, the Ki (Adenosine receptor A1 [1]) is reported as 0.378 µM, the Ki (Adenosine receptor A2a [2]) is reported as 0.181 µM and the Ki (Adenosine receptor A2b [3]) is reported as 1.87 µM. For the same molecule, the Ki (Adenosine receptor A3 [4]) was 0.959 µM.

CCCn1cnc2c(N)nc(NCCc3ccccc3)nc21 gave a Ki (Adenosine receptor A1 [1]) of 2.33 µM, a Ki (Adenosine receptor A2a [2]) of 0.738 µM and a Ki (Adenosine receptor A2b [3]) of 9.25 µM. For the same molecule, the Ki (Adenosine receptor A3 [4]) was 5.88 µM.
